One assay deals with CAT. The experiment in a line: CAT activity in skin of D-galactose-injected mice. The class given is in vivo, Kunming mice. The conditions noted are these: 14th week, 100 mg/kg each s.c. once daily for 6 weeks, vs non-supplementation group. As for the experimental part:
(§1) Six-week-old, male, Kunming mice (n=40), weighed about 30±2 g, were obtained from Cavens Lab Animal (Changzhou, China) and housed in a controlled room (25±2° C., 60% relative humidity, 12 h light/dark cycle) with free access to water and standard laboratory diet. After an acclimation period (1 week), mice were randomly divided into four groups. Each mouse's back skin was chosen as the experimental observation area, a razor was used to shave off the back hair. 5% sodium sulfide solution was applied to the back to remove the hair. All mice were then injected subcutaneously with same volume of D-galactose (1000 mg/kg), once a day for 8 weeks. During the entire experiment, the daily food intake and weight of each mouse were recorded every day, and the D-galactose injection dose were adjusted according to the weight change. The four groups were non-supplement group (Con, Group 1); DHB supplement group (100 mg/kg, Group 2); EGT supplement group (100 mg/kg, Group 3); and EGT+DHB supplement group (100 mg/kg EGT+100 mg/kg DHB, Group 4). Mice in groups 2-4 were injected subcutaneously (s.c.) into their back skins with the corresponding concentration before each major meal once daily for 6 weeks. All mice were sacrificed after 6 weeks at the end of the experiment. […] The levels of H2O2, SOD, CAT, GSH, and GSH-Px in the skin were detected with relative kits as reference. […]

The next assay concerns GSH-Px. In words: GSH-Px activity in skin of D-galactose-injected mice. It counts as in vivo, Kunming mice. The following applies: 14th week, 100 mg/kg each s.c. once daily for 6 weeks, vs non-supplementation group. As for the experimental part:
as §1

In another assay the test system is SOD. The experiment in a line: SOD activity in skin of D-galactose-injected mice. The class given is in vivo, Kunming mice. The conditions noted are these: 14th week, 100 mg/kg each s.c. once daily for 6 weeks, vs non-supplementation group. As for the experimental part: as §1
The test system of another assay is GSH. In words: GSH activity in skin of D-galactose-injected mice. The class given is in vivo, Kunming mice. The following applies: 14th week, 100 mg/kg each s.c. once daily for 6 weeks, vs non-supplementation group. As for the experimental part:
as §1

Assay [1] relates to advanced glycation end products (AGEs) formed from bovine serum albumin (BSA) and D-ribose. In words: Measurement of glycation: fluorescence of AGEs from BSA incubated with D-ribose. It counts as biochemical. The conditions noted are these: BSA 1 mg/ml + D-ribose 10 mM, 37° C., 10 days; EGT 3 mM alone or DHB 3 mM + EGT 3 mM. As for the experimental part:
The formulation of glycation products was observed placing together a bovine serum albumin (BSA) and D-ribose in the absence of DHB and EGT, EGT only and DHB and EGT combination.
Specifically, a solution of BSA at a concentration of 1 mg/ml dissolved in phosphate-buffered saline (PBS) was incubated at 37° C. for 10 days with D-ribose at a concentration of 10 mM, in the presence of EGT only (3 mM, Group 1) and the DHB (3 mM) and EGT (3 mM) combination (Group 2).
So, the glycation was evaluated by measuring the fluorescence of the AGEs at λem=450 nm emitted by each sample after excitation at λex=380 nm. The inhibition of glycation was visualized by the decrease in fluorescence compared with the samples treated with the sugar alone.

The results in this text go back to patent US20250381171A1, “COMBINATION OF DIHYDROBERBERINE AND ERGOTHIONEINE TO REDUCE OR INHIBIT ADVANCED GLYCATION END-PRODUCTS” (NANJING NUTRABUILDING BIO-TECH CO., LTD., priority 2023, published 2025).

SMILES strings stand for the structures.

As for `COc1ccc2c(c1OC)CN1CCc3cc4c(cc3C1=C2)OCO4` [DHB, Dihydroberberine], the “CAT activity (in words)” value in the assay with CAT was “significantly improved”. Further, the “GSH-Px activity (in words)” value in the assay on GSH-Px was “significantly improved”. The “SOD activity (in words)” value with SOD is on record as “significantly improved”. Also, the “GSH activity (in words)” value in the assay on GSH is “significantly improved”.

As to `C[N+](C)(C)[C@@H](Cc1c[nH]c(=S)[nH]1)C(=O)[O-]` [EGT, ergothioneine], the “anti-glycation activity (in words)” value in assay [1] is recorded as “fabulous anti-glycation activity”. Besides, the “CAT activity (in words)” value in the assay with CAT is listed as “significantly improved”. Moreover, in the assay on GSH-Px, the “GSH-Px activity (in words)” value is “significantly improved”. The “SOD activity (in words)” value in the assay with SOD is “significantly improved”. The “GSH activity (in words)” value in the assay with GSH is “significantly improved”.
